# Data published in PMC6378217, “The lysyl oxidase like 2/3 enzymatic inhibitor, PXS‐5153A, reduces crosslinks and ameliorates fibrosis” (Journal of Cellular and Molecular Medicine, 2018).
# Experiments:
# [1] = molecular target: T1, LOXL2 (Homo sapiens, UniProt Q9Y4K0); test: Collagen oxidation assay; format: biochemical; set-up: purchased R&D Systems; settings: 20 nmol/L rhLOXL2, different concentrations of PXS-5153A, slope at 20-40 minute
# T1 sequence (Q9Y4K0 26-774): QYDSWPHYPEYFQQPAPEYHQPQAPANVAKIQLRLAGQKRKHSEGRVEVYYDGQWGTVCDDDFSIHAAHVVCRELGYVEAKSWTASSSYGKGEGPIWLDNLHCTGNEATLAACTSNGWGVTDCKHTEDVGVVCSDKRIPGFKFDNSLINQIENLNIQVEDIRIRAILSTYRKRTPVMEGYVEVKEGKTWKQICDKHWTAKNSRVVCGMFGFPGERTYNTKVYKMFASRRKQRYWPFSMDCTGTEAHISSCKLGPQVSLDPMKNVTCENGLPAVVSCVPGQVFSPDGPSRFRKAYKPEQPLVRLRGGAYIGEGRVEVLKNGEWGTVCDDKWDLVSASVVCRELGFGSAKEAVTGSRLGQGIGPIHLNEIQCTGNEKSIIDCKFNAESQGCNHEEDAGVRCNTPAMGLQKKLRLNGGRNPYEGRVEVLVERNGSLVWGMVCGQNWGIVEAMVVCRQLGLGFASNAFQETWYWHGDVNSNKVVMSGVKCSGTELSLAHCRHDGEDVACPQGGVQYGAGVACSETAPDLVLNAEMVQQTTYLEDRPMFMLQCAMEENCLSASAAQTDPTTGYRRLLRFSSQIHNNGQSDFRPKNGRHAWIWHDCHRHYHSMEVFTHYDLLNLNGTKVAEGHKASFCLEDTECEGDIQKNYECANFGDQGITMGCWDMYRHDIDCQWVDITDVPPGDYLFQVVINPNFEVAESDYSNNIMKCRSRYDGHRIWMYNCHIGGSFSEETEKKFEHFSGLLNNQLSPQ
# Description: Collagen oxidation assay was based on the release of hydrogen peroxide as previously described27 and detailed in the supporting information. Briefly, collagen was combined with rhLOXL2 with or without the pan‐lysyl oxidase inhibitor BAPN (β‐aminoproprionitrile, 100 μmol/L, Sigma‐Aldrich) or PXS‐5153A. An Amplex reaction mixture was added into each well. The slope per minute of the kinetic curves for each sample was calculated using MARS data analysis software (BMG labtech) in the linear phase (between the 20 and 40 minute time points).
# Collagen oxidation assay was based on the release of hydrogen peroxide as described previously described. In a 384 black well plate, 25 μL of collagen (rat tail, type I, Thermo Fisher, 1.5 mg/mL in 50 mM sodium borate buffer, pH 8.2) was combined with 25 μL rhLOXL2 (R&D Systems) with or without the pan-lysyl oxidase inhibitor BAPN (100 μM, Sigma-Aldrich) or PXS-5153A. A reaction mixture using AR (120 μM; Life Technologies), HRP (1.5 U/mL; Sigma-Aldrich) was prepared in 50 mM sodium borate buffer. […] The relative fluorescence units (RFU) were read every 1 minute for 3 hours at 37°C, excitation 565 nm and emission 590 (Clariostar, BMG labtech). The slope per minute of the kinetic curves for each sample was calculated using MARS data analysis software (BMG labtech) in the linear phase (between the 20-40 minute time points).
# [2] = test system: GABAA, Flunitrazepam, Central; test: Eurofins Hit Profiling Screen; format: binding; settings: 10 μmol/L
# [3] = test system: Rolipram; test: Eurofins Hit Profiling Screen; format: binding; settings: 10 μmol/L
# [4] = molecular target: T1, LOXL2; test: In vitro crosslinking assay; format: biochemical; set-up: purchased R&D Systems; settings: 200 nmol/L PXS-5153A, 20 nmol/L rhLOXL2 daily for 5 days, crosslinks on day 7
# Description: About 200 μL of 3 mg/mL collagen (rat tail, type I, Thermo Fisher) was combined with 800 μL of 50 mmol/L sodium borate buffer (pH 8.2) and 20 nmol/L of rhLOXL2 (with or without inhibitor, PXS‐5153A 200 nmol/L). Enzyme/inhibitor were replenished daily for 5 days. Samples were incubated at 37°C and crosslinks were extracted on day 7.
# About 10mg of freeze‐dried samples were reduced with NaBH4. Pellet then underwent acid hydrolysis in 6 mol/L HCl at 100°C for 24 hours. Hydroxyproline and crosslinks were extracted from the hydrolysate using an automated solid phase extraction system (Gilson GX‐271 ASPECA system). After extraction and drying, hydroxyproline and crosslinks were analysed by UHPLC‐ESI‐MS/MS on a Thermo Dionex UHPLC and TSQ Endura triple quad mass spectrometer. Total protein was quantified in the samples using a commercially available kit (QuickZyme Biosciences, Leiden, The Netherlands). For detailed procedures, see supporting information.
# [5] = molecular target: T2, Recombinant rat LOXL2 (Rattus norvegicus, UniProt B5DF27); test: Amplex-Red fluorometric enzymatic activity assay, recombinant rat LOXL2; format: biochemical; settings: 30 minute pre-incubation; average of at least three experiments
# T2 construct: made in house; host or cells: HEK-293 clones provided by Dr. Fernando Rodríguez Pascual
# T2 sequence (B5DF27 26-776): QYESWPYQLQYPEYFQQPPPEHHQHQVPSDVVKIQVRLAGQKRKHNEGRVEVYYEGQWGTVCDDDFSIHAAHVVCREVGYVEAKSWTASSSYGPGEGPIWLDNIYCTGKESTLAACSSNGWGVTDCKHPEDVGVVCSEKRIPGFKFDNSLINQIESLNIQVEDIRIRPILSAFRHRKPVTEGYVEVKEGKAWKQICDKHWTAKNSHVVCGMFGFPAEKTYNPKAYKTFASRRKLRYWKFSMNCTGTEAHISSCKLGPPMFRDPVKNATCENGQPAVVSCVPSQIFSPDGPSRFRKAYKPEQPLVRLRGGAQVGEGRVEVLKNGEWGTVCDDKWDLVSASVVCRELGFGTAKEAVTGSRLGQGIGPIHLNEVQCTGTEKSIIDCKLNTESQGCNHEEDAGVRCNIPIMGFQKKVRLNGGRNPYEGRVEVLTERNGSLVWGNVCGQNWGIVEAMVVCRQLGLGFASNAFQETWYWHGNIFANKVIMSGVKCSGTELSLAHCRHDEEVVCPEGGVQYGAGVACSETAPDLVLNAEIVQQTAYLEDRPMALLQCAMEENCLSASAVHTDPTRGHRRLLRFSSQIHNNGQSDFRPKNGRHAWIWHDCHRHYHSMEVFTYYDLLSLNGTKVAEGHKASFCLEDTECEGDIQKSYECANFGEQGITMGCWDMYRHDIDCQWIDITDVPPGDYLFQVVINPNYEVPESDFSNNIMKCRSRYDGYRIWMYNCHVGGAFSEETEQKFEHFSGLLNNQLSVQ
# Description: The measurement of the enzymatic activity of all lysyl oxidase family members was based on the detection of hydrogen peroxide with an Amplex‐Red oxidation assay, as described in Zhou et al26 Recombinant human semicarbazide sensitive amine oxidase (SSAO/VAP1), diamine oxidase (DAO) and monoamine oxidases A and B (MAO‐A and MAO‐B) assays were performed as previously described.27 For detailed enzymatic procedures, see supporting information.
# The measurement of the enzymatic activity of all lysyl oxidase family members was based on the detection of hydrogen peroxide with an Amplex-Red oxidation assay, as described in Zhou et al.[1]; miniaturised in 384 well format, with the appropriate combination of substrate and assay buffer for each individual enzyme. After a 30 minute pre-incubation of the enzyme at 37 °C with the test compound (or with different incubation times for the time-dependency assay), one volume of reaction mixture containing 120 μM Amplex Red (AR) (Life Technologies), 1.5 U/mL horseradish peroxidase (HRP) (Sigma-Aldrich) and the specific substrate was added to each sample. The relative fluorescence units (RFU) were then measured every 2.5 minutes for 30 minutes at 37°C, excitation 565 nm and emission 590, on a BMG Clariostar Microplate Reader. […]
# [6] = test system: Imidazoline I2, Central; test: Eurofins Hit Profiling Screen; format: binding; settings: 10 μmol/L
smiles,measurement,setting,value
Cc1c(-c2cccc(S(=O)(=O)N(C)C)c2)c2ncccc2n1C/C(F)=C/CN.Cl.Cl [PXS-5153A],collagen oxidation,[1],impeding collagen oxidation
same,% inhibition,[2],26%
same,% inhibition,[3],28%
same,"crosslink formation DHLNL, HLNL, PYD, DPD",[4],prevented all crosslink formation
same,IC50,[5],15 nM
same,pIC50 ± SD,[5],7.8 ± 0
same,% inhibition,[6],57%
